Assay results reported in patent US20130005588A1, “METHOD FOR DETERMINING SUBSTANCE NON-TOXICITY” (priority 2010, published 2013).
Read-outs that look alike come from different tables or passages of the source. Residues, ends and D or L forms follow the SMILES beside them.

Legend:
[1] = tested on: rat 3-D primary aggregating brain cell cultures; assay: Gene expression (mRNA of nestin, NF-200, S100β, MBP) by quantitative real-time PCR in aggregating brain cell cultures exposed to potential DNT chemicals; type: cell-based
Experimental: (§1) Generally one batch of Rat primary aggregating brain cell cultures aggregates were prepared every month. […] The endpoints applied to study processes of neurodevelopment include quantitative real-time PCR, Western blot analysis and mass spectrometry based metabolomics.
Aggregate cultures were maintained for 35 days in vitro (DIV). Samples were taken at DIV 1, 7, 14, 21, 28, 35 and mRNA was isolated, purified and quantified by RT-PCR.
The expression of the following genes was quantified; nestin expressed in neural precurser cells, neurofilament-200 (NF-200) expressed in neurons, S100β expressed in astrocytes and myelin basic protein (MBP) expressed in oligodendrocytes.
Aggregating brain cell cultures were exposed to potential DNT chemicals during both early (day in vitro 7-14) and late developmental stages (day in vitro […]). Chemicals were dissolved in water or DMSO depending on their chemical properties. Control cells received the vehicle without the DNT chemical.

[2] = tested on: primary rat aggregating brain cell cultures; type: cell-based
Experimental: as §1
Cellular extracts (control and treated cultures) were prepared as described. The samples were used to establish an LC-MS method for the analysis of metabolites. […] Significant pertubations in metabolite levels were determined by principal component analysis and metabolites were identified by a Metlin metabolite database search using their retention time and accurate mass. Examples of metabolites that were perturbed by lead chloride and TCE treatment in the neuronal cell model and could be linked to biological pathways are provided in Table 3.

[3] = astrocytic marker, exposure DIV 7-14 or 7-21, real-time PCR
[4] = nestin, NF-200, S100β, MBP, exposure DIV 7-14 or 7-21
[5] = neural precursor marker, exposure DIV 7-14 or 7-21, real-time PCR
[6] = neuronal marker, exposure DIV 7-14 or 7-21, real-time PCR
[7] = oligodendrocyte marker, exposure DIV 7-14 or 7-21, real-time PCR

Row | SMILES | The lowest concentration inducing changes in mRNA levels of S100β [1, 3] | significant effects on quantified gene expression levels (one or several cell type related genes) [1, 4] | The lowest concentration inducing changes in mRNA levels of nestin [1, 5] | The lowest concentration inducing changes in mRNA levels of NF-200 [1, 6] | The lowest concentration inducing changes in mRNA levels of MBP [1, 7] | significant effects on quantified gene expression levels (one or several cell type related genes) [1] | The lowest concentration inducing changes in mRNA levels of NF-200 ([1]; rat) | The lowest concentration inducing changes in mRNA levels of S100β ([1]; rat) | The lowest concentration inducing changes in mRNA levels of nestin ([1]; rat) | alteration of metabolites in the aggregate samples ([2]; LC-MS, intra-cellular extracts, treatment 7 to 21 DIV, principal component analysis) | The lowest concentration inducing changes in mRNA levels of S100β ([1]; astrocytic marker, exposure DIV 7-14 or 7-21, real-time PCR, listed as maneb) | alteration of metabolites in the aggregate samples [2] | The lowest concentration inducing changes in mRNA levels of MBP ([1]; rat) [µM]
1 | COC(=O)[C@H](Cc1ccccc1)NC(=O)[C@@H](N)CC(=O)O [Aspartame] (HELM PEPTIDE1{D.F.[CO[*:1]]}$$$$V2.0) | —^1 | did not induce any significant effects | —^1 | —^1 | —^1 | – | – | – | – | – | – | – | –
2 | CC(C)(c1ccc(O)cc1)c1ccc(O)cc1 [Bisphenol A] | —^1 | significantly affected | —^1 | 100 µM | —^1 | – | – | – | – | – | – | – | –
3 | [Cl][Cd][Cl] [Cadmium Chloride] | 1 µM | significantly affected | 1 µM | 1 µM | 10 µM | – | – | – | – | – | – | – | –
4 | CNC(=O)Oc1cccc2ccccc12 [Carbaryl] | —^1 | – | 0.1 µM | 0.1 µM | 0.1 µM | – | – | – | – | – | – | – | –
5 | CCOP(=S)(OCC)Oc1nc(Cl)c(Cl)cc1Cl [Chlorpyrifos] | 10 µM | significantly affected | 0.1 µM | 0.1 µM | 1 µM | – | – | – | – | – | – | – | –
6 | Nc1nnc(-c2cccc(Cl)c2Cl)c(N)n1 [Lamotrigine] | – | – | – | – | – | did not induce any significant effects | —^1 | —^1 | —^1 | – | – | – | –
7 | [Cl][Pb][Cl] [Lead Chloride] | 10 µM | significantly affected | 10 µM | 0.1 µM | 0.1 µM | – | – | – | – | altered hundreds of metabolites | – | – | –
8 | Cl[C@H]1[C@H](Cl)[C@@H](Cl)[C@@H](Cl)[C@H](Cl)[C@H]1Cl [Lindane] | —^1 | significantly affected | 0.1 µM | 0.1 µM | 1 µM | – | – | – | – | – | – | – | –
9 | S=C([S-])NCCNC(=S)[S-].[Mn+2] [Maneb] | —^1 | significantly affected | 1 µM | 0.1 µM | 0.1 µM | – | – | – | – | – | no observed effects | – | –
10 | ClC=C(Cl)Cl [Trichloroethylene] | – | – | – | – | – | significantly affected | 0.1 µM | —^1 | 50 µM | – | – | altered hundreds of metabolites | –
11 | CCCC(CCC)C(=O)O [Valproic acid] | – | – | – | – | – | significantly affected | —^1 | 500 µM | —^1 | – | – | – | 100
